Key:
[1] = molecular target: Fibroblast growth factor receptor 1 (Homo sapiens, UniProt P11362); assay: Inhibition of recombinant human FGFR1 using poly (Glu,Tyr) 4:1 as substrate after 60 mins by ELISA
[2] = molecular target: Fibroblast growth factor receptor 2 (Homo sapiens, UniProt P21802)
Description: Inhibition of recombinant human FGFR2 using poly (Glu,Tyr) 4:1 as substrate after 60 mins by ELISA

[3] = molecular target: Fibroblast growth factor receptor 3 (Homo sapiens, UniProt P22607); assay: Inhibition of recombinant human FGFR3 using poly (Glu,Tyr) 4:1 as substrate after 60 mins by ELISA
[4] = Inhibition of FGFR3 mutant in human UM-UC-14 cells assessed as inhibition of cell proliferation after 72 hrs by cell counting kit-8 assay; format: cell-based; details: UMUC14, 72 h

Chain of Fibroblast growth factor receptor 3 (P22607 whole entry): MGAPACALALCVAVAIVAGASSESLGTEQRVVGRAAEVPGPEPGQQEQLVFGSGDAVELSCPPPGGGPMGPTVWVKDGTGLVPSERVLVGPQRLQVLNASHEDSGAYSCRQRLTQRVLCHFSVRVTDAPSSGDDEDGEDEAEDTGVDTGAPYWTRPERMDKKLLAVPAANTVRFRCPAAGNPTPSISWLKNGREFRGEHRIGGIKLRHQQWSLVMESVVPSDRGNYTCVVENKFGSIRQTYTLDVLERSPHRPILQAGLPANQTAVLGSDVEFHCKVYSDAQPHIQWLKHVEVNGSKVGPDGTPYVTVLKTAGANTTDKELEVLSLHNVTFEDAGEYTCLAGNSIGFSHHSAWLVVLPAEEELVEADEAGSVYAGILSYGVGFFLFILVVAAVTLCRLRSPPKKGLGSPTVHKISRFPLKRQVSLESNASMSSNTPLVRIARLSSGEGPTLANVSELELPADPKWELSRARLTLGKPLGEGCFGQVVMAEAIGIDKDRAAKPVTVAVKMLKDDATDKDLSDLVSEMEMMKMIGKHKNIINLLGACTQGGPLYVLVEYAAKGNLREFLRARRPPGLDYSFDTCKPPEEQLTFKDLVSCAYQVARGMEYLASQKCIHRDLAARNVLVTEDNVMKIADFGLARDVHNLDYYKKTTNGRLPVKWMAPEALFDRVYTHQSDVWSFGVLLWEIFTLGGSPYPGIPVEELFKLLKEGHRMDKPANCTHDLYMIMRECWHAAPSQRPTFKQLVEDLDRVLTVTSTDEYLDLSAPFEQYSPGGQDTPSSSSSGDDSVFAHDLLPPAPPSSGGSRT
Chain of Fibroblast growth factor receptor 2 (P21802 whole entry): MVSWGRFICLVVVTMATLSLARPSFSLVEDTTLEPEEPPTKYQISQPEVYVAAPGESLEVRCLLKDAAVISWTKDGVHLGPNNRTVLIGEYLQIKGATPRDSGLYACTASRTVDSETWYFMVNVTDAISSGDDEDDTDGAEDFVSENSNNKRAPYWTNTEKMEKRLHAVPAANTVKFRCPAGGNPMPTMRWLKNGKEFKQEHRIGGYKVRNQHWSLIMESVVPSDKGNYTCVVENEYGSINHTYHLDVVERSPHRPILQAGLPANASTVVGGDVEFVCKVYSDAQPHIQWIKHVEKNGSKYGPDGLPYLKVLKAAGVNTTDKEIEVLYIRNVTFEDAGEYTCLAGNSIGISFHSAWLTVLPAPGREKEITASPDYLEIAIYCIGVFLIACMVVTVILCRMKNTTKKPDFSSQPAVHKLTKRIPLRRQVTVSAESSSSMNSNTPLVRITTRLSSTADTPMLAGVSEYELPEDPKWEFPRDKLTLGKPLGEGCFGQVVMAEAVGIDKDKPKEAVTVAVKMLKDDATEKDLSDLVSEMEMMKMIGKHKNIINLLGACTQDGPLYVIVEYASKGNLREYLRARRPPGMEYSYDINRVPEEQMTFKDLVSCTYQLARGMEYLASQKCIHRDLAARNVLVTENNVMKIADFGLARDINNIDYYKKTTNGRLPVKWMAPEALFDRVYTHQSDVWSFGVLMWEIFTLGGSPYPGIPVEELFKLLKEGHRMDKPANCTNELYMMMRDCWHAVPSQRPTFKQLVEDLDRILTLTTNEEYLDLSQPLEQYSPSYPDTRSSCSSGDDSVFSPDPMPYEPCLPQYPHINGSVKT
Chain of Fibroblast growth factor receptor 1 (P11362 whole entry): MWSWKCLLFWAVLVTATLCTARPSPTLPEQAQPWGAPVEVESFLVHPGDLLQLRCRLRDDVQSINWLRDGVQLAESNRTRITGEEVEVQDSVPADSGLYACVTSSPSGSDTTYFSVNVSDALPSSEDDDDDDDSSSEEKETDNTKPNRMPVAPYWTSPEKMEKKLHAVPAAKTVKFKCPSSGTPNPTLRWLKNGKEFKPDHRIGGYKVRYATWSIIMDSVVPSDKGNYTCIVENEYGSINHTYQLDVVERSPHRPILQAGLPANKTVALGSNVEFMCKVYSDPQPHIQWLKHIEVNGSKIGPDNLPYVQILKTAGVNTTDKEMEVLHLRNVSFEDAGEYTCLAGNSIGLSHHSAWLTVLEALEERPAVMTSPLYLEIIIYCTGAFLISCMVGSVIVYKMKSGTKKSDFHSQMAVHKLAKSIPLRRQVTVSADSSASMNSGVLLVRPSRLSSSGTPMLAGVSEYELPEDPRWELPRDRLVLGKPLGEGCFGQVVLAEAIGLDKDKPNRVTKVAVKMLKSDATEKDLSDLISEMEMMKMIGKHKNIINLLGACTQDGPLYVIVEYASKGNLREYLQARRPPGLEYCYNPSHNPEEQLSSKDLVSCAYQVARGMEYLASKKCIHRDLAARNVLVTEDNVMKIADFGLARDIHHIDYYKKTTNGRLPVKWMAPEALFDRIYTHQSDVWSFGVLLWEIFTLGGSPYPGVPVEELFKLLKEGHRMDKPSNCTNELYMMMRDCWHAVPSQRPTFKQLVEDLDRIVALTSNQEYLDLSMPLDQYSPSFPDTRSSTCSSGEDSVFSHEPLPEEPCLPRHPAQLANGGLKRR

IC50 [1] [nM]	IC50 [2] [nM]	IC50 [3] [nM]	Structure (SMILES)	IC50 [4] [nM]
> 1000	> 1000	> 1000	Cc1n[nH]c2ccc(-c3cc(N[C@@H](CO)c4ccccc4)cnc3-c3cc(C(C)C)ccc3O)cc12	
> 1000	100 to 1000	> 1000	COc1ccccc1-c1ncc(N[C@@H](CO)c2ccccc2)cc1-c1ccc2[nH]nc(C)c2c1	
48.8	72.9	388	Cc1n[nH]c2ccc(-c3cc(N[C@@H](CO)c4ccccc4)cnc3-c3ccccc3C(N)=O)cc12	
32.3	16.1	22.8	Cc1ccc(O)c(-c2ncc(N[C@@H](CO)c3ccccc3)cc2-c2ccc3[nH]nc(C)c3c2)c1	
> 1000	> 1000	> 1000	CC(=O)Nc1ccc(-c2cc(N[C@@H](CO)c3ccccc3)cnc2-c2cc(Cl)ccc2O)cc1	
> 1000	> 1000	> 1000	Cc1n[nH]c2ccc(-c3cc(NCCCO)cnc3-c3cc(F)ccc3O)cc12	
> 1000	> 1000	> 1000	OC[C@H](Nc1cnc(-c2cc(Cl)ccc2O)c(-c2ccc3[nH]ccc3c2)c1)c1ccccc1	
63.5	3.4	58.4	Cc1n[nH]c2ccc(-c3cc(N[C@@H](CO)c4ccccc4)cnc3-c3cc(F)cc(F)c3O)cc12	
> 1000	> 1000	> 1000	Cc1n[nH]c2ccc(-c3cc(N[C@@H](C)c4ccccc4)cnc3-c3cc(Cl)ccc3O)cc12	
> 1000	> 1000	> 1000	Cc1n[nH]c2ccc(-c3cc(N[C@@H](CO)c4ccccc4)cnc3-c3ccccc3C(F)(F)F)cc12	
327	56.9	970	Cc1n[nH]c2ccc(-c3cc(N[C@@H](CO)c4ccccc4)cnc3-c3ccsc3)cc12	
128	26.3	280	Cc1n[nH]c2ccc(-c3cc(N[C@@H](CO)c4ccccc4)cnc3-c3ccccc3)cc12	
91.5	154	591	O=C1Cc2cc(-c3cc(N[C@@H](CO)c4ccccc4)cnc3-c3cc(Cl)ccc3O)ccc2N1	
14.9	3	8	Cc1n[nH]c2ccc(-c3cc(N[C@@H](CO)c4ccccc4)cnc3-c3ccccc3O)cc12	
> 1000	100 to 1000	> 1000	Cc1n[nH]c2ccc(-c3cc(N[C@@H](CO)c4ccccc4)cnc3-c3cccs3)cc12	
456	56.4	561	Cc1n[nH]c2ccc(-c3cc(N[C@@H](CO)c4ccccc4)cnc3-c3cccc4cc[nH]c34)cc12	

IC50 [1] [nM]	IC50 [2] [nM]	IC50 [3] [nM]	Structure (SMILES)	IC50 [4] [nM]
24.9	6.6	93.9	Cc1n[nH]c2ncc(-c3cc(N[C@@H](CO)c4ccccc4)cnc3-c3cc(Cl)ccc3O)cc12	
> 1000	> 1000	> 1000	Cc1n[nH]c2ccc(-c3cc(NCCO)cnc3-c3cc(F)ccc3O)cc12	
10.6	2.8	27.6	Cc1n[nH]c2ccc(-c3cc(N[C@@H](CO)c4ccccc4)cnc3-c3cc(F)c(F)cc3O)cc12	
> 1000	> 1000	> 1000	Cc1n[nH]c2ccc(-c3cc(N[C@@H](CO)c4ccccc4)cnc3-c3cccc4cccnc34)cc12	
3800	> 1000	> 1000	Cc1n[nH]c2ccc(-c3cc(N[C@@H](CO)c4ccccc4)cnc3-c3ccoc3)cc12	
27.9	2.5	35.3	Cc1n[nH]c2ccc(-c3cc(N[C@@H](CO)c4ccccc4)cnc3-c3cccc(F)c3O)cc12	
66.5	21.4	434	Cc1n[nH]c2ccc(-c3cc(N[C@@H](CO)c4ccccc4)cnc3-c3cccc(O)c3)cc12	
> 1000	> 1000	> 1000	Cc1n[nH]c2ccc(-c3cc(N[C@H](CO)c4ccccc4)cnc3-c3cc(Cl)ccc3O)cc12	
> 1000	100 to 1000	> 1000	Cc1n[nH]c2ccc(-c3cc(N[C@@H](CO)c4ccccc4)cnc3-c3ccco3)cc12	
167	50.5	251	Cc1n[nH]c2ccc(-c3cc(N[C@@H](CO)c4ccccc4)cnc3-c3ccccc3CO)cc12	
418	250	3650	CC(=O)Nc1ccccc1-c1ncc(N[C@@H](CO)c2ccccc2)cc1-c1ccc2[nH]nc(C)c2c1	
> 1000	> 1000	> 1000	Cc1n[nH]c2ccc(-c3cc(N[C@@H](CO)c4ccccc4)cnc3-c3cccnc3)cc12	
437	44.6	431	Cc1n[nH]c2ccc(-c3cc(N[C@@H](CO)c4ccccc4)cnc3-c3ccccc3F)cc12	
			COc1cc(CCc2cc(NC(=O)c3ccc(N4C[C@@H](C)N[C@@H](C)C4)cc3)n[nH]2)cc(OC)c1 [FEXAGRATINIB]	27.1
168	71.9	401	Cc1n[nH]c2ccc(-c3cc(NC[C@H](O)c4ccccc4)cnc3-c3cc(Cl)ccc3O)cc12	

Source: ChEMBL document CHEMBL4017490, “Design, Synthesis, and Pharmacological Evaluation of Novel Multisubstituted Pyridin-3-amine Derivatives as Multitargeted Protein Kinase Inhibitors for the Treatment of Non-Small Cell Lung Cancer” (J Med Chem, 2017)
